From US7074789B2, “Kinase inhibitors” (Amgen Inc., priority 1999, dated 2006)
Like-named read-outs stand apart in the source and are kept apart here.

Legend:
Type in all cases: biochemical
[1] = target: T1, EGFR (Homo sapiens, UniProt P00533); assay: Kinase inhibition assay (33P transfer), EGFR; details: Table 2, kinase inhibition class; read-out: EGFR-1
T1 construct: Kinases are expressed as either kinase domains or full length constructs; made in house
Outline: (§1)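 Activity read as 33P incorporation from ATP into poly(Glu,Tyr) 4:1 or poly(Arg,Ser) 3:1 substrate bound to microtiter plates, measured by scintillation after acid washing. Enzymes were affinity-purified GST or polyHis fusions (kinase domain or full length) from E. coli or baculovirus; IC50 = 50% reduction in labelled phosphate.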

[2] = target: T2, Itk (Homo sapiens, UniProt Q08881); assay: Kinase inhibition assay (33P transfer), Itk; details: read-out: Itk-1
T2 construct: Kinases are expressed as either kinase domains or full length constructs; made in house
T2 sequence (Q08881 1-620): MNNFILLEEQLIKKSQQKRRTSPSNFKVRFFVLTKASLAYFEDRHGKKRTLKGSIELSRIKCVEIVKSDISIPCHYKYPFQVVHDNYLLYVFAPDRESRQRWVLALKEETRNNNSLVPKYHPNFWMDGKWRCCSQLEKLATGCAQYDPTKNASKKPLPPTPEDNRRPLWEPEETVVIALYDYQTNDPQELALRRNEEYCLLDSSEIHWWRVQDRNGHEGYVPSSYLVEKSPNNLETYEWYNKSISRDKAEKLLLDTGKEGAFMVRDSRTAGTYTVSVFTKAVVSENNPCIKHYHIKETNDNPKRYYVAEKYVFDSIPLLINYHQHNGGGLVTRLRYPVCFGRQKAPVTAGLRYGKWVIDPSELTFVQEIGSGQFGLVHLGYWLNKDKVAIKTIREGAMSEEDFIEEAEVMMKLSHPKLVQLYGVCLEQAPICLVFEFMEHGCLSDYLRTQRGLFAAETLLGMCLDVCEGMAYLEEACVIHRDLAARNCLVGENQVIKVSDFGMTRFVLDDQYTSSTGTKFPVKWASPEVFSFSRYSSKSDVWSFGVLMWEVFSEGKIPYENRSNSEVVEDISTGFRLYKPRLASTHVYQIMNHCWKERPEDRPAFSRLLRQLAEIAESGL
Outline: as §1

[3] = target: T3, c-Met (Homo sapiens, UniProt P08581); assay: Kinase inhibition assay (33P transfer), c-Met; details: Table 2, kinase inhibition class; read-out: Met-1
T3 construct: Kinases are expressed as either kinase domains or full length constructs; made in house
Outline: as §1

[4] = target: T4, Zap-70 (Homo sapiens, UniProt P43403); assay: Kinase inhibition assay (33P transfer), Zap-70; details: read-out: Zap-1
T4 construct: Kinases are expressed as either kinase domains or full length constructs; made in house
T4 sequence (P43403 1-619): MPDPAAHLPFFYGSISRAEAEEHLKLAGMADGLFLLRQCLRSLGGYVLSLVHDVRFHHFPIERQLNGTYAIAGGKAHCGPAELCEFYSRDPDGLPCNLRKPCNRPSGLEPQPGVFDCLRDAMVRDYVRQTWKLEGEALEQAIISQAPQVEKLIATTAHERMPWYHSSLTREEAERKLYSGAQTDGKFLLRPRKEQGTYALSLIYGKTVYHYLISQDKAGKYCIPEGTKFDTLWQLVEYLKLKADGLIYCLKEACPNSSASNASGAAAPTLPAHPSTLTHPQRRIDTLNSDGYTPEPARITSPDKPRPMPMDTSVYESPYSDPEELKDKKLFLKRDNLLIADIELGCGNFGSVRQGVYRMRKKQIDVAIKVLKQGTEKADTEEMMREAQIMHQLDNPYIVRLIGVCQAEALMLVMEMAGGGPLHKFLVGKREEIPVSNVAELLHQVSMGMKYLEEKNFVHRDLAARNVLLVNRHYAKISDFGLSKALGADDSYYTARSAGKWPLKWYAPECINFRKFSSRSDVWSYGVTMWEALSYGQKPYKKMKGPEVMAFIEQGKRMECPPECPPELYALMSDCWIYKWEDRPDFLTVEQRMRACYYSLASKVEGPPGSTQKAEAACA
Outline: (§2)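 Recombinant kinase-domain or full-length fusion proteins (GST or His tag) served as enzyme. Substrate poly(Glu,Tyr) 4:1 or poly(Arg,Ser) 3:1 was bound to the plate; transferred 33P was read by liquid scintillation following acid washing.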

[5] = target: T5, IGFR-1 (Homo sapiens, UniProt P08069); assay: Kinase inhibition assay, IGFR-1 (Table 2); details: Table 2, kinase inhibition class
T5 construct: Kinases are expressed as either kinase domains or full length constructs; made in house

[6] = target: T6, Lck (Homo sapiens, UniProt P06239); assay: Kinase inhibition assay (33P transfer), Lck; details: read-out: Lck-1
T6 construct: Kinases are expressed as either kinase domains or full length constructs; made in house
Outline: as §2

[7] = target: T7, PDGFRB (Homo sapiens, UniProt P09619); assay: Kinase inhibition assay (33P transfer), PDGFRB; details: read-out: PDGFRB-1
T7 construct: Kinases are expressed as either kinase domains or full length constructs; made in house

[8] = target: T8, ErbB2 (Homo sapiens, UniProt P04626); assay: Kinase inhibition assay (33P transfer), ErbB2; details: read-out: ErbB2-2
T8 construct: Kinases are expressed as either kinase domains or full length constructs; made in house
Outline: as §1

[9] = target: T9, Kdr (Homo sapiens, UniProt P35968); assay: Kinase inhibition assay (33P transfer), Kdr
T9 construct: Kinases are expressed as either kinase domains or full length constructs; made in house
Outline: as §2

[10] = target: T10, AKT (Homo sapiens, UniProt Q9Y243); assay: Kinase inhibition assay (33P transfer), AKT; details: Table 2, kinase inhibition class; read-out: AKT3-1
T10 construct: Kinases are expressed as either kinase domains or full length constructs; made in house
Outline: as §2

T8 sequence (P04626 23-1255, species assumed): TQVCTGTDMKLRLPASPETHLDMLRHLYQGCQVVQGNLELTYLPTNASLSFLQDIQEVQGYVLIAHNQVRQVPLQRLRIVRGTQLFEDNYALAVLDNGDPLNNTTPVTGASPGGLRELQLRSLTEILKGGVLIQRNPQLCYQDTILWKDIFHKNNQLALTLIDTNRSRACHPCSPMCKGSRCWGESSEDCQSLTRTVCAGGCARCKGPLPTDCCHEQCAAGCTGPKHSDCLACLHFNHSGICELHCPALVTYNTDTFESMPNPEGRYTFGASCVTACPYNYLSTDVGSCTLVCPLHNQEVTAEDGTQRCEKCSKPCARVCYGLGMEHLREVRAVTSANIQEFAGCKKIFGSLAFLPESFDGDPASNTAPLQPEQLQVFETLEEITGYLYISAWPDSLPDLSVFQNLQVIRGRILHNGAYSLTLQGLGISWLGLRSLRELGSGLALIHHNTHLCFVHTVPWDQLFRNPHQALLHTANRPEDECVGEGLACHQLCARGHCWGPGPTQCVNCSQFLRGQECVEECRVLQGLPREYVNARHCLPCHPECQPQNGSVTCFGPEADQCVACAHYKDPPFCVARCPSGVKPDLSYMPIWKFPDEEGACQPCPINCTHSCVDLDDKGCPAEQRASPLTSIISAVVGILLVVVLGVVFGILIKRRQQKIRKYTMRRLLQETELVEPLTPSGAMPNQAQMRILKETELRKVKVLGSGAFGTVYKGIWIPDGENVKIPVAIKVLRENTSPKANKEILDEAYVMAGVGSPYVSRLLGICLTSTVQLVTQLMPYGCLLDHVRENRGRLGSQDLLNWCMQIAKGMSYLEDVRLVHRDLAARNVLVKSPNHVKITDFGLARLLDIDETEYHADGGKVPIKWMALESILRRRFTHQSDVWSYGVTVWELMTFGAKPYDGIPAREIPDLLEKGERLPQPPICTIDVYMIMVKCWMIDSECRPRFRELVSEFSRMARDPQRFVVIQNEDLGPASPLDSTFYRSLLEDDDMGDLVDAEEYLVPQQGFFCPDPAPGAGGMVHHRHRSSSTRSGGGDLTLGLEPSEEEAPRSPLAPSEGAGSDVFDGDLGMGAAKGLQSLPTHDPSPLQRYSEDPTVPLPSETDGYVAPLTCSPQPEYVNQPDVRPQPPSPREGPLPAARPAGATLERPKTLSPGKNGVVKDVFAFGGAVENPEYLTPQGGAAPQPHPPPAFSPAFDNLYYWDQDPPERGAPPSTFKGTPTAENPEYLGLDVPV
T6 sequence (P06239 whole entry, species assumed, the tested form may be a part): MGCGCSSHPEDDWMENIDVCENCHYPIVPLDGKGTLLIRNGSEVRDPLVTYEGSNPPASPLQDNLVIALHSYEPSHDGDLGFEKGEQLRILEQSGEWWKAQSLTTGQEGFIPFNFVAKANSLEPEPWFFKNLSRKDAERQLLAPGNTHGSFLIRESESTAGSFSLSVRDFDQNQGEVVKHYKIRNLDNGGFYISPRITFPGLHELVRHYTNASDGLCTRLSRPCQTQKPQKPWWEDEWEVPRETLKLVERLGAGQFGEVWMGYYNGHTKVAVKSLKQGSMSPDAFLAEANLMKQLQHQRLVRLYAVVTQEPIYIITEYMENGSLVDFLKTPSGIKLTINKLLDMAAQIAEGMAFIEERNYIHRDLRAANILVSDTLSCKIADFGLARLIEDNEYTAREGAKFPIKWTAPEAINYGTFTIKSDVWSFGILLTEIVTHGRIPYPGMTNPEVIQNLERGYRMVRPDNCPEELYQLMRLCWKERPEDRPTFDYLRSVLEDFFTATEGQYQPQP
T9 sequence (P35968 20-1356, species assumed): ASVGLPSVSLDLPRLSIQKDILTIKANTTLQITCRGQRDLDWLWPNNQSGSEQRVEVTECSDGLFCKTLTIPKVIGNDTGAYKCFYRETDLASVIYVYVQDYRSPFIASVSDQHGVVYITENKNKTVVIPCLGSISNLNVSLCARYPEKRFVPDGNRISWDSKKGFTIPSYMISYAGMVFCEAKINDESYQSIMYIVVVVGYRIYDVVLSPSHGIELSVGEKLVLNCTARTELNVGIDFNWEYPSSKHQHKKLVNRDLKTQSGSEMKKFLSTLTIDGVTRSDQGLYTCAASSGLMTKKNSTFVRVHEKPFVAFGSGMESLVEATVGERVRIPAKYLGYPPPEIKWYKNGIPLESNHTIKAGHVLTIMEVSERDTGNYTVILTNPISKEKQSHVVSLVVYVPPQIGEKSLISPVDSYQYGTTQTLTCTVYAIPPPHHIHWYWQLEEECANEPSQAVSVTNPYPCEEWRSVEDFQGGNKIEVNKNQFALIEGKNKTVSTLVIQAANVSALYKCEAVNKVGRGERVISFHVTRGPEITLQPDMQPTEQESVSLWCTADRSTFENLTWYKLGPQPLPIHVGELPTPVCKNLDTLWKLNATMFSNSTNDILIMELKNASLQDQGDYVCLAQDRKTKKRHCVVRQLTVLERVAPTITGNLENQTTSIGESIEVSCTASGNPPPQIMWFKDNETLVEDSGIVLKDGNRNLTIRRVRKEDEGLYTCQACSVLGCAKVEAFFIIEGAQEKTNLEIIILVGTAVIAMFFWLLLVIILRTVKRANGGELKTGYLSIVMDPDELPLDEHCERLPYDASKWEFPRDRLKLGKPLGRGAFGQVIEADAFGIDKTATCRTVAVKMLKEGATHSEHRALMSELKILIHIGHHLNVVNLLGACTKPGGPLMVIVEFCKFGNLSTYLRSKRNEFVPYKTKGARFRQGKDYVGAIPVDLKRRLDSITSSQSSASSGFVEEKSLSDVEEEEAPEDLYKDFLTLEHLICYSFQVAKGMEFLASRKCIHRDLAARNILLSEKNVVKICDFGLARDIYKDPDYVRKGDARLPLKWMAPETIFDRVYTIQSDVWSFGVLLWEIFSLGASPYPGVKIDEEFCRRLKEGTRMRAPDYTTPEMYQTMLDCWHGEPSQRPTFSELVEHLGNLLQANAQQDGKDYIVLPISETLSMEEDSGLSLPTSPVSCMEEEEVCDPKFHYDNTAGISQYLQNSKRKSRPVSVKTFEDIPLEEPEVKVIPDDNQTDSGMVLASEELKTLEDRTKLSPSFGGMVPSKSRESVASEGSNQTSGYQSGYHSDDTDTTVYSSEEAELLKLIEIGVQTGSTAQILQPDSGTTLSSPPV
T5 sequence (P08069 31-1367): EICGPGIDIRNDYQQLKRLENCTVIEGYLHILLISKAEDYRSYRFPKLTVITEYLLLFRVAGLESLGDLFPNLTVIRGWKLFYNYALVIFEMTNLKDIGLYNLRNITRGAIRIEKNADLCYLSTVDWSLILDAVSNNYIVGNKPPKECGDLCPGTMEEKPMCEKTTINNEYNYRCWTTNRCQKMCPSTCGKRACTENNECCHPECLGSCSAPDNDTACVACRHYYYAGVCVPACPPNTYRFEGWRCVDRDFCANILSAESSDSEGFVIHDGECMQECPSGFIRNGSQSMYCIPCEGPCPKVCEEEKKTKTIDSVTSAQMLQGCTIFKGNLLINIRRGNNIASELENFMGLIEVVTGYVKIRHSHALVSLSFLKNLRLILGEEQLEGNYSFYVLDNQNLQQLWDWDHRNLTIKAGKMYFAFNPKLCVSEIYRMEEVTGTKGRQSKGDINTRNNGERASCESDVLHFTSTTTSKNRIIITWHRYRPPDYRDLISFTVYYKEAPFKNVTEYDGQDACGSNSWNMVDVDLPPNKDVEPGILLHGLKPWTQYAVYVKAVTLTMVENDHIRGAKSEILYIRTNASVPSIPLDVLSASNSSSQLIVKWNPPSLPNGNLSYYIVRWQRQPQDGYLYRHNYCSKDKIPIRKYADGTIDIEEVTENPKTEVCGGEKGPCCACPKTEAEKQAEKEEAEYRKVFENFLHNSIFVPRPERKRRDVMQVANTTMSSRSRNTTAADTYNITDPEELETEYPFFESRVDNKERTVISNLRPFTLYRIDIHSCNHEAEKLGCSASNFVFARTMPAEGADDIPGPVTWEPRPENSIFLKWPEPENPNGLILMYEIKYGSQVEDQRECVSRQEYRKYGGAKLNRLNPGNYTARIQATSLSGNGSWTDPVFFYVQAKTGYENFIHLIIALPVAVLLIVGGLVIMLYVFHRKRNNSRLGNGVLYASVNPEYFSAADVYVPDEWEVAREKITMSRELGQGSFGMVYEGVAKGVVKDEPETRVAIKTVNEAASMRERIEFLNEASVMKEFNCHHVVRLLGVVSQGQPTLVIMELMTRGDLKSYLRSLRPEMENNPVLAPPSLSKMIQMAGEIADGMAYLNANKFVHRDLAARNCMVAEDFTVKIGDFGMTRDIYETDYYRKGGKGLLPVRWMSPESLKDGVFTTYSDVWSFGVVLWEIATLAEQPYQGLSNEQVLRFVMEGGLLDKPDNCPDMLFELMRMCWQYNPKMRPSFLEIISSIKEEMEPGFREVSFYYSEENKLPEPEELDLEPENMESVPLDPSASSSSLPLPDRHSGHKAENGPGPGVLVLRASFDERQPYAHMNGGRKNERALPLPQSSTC
T10 sequence (Q9Y243 whole entry, the tested form may be a part): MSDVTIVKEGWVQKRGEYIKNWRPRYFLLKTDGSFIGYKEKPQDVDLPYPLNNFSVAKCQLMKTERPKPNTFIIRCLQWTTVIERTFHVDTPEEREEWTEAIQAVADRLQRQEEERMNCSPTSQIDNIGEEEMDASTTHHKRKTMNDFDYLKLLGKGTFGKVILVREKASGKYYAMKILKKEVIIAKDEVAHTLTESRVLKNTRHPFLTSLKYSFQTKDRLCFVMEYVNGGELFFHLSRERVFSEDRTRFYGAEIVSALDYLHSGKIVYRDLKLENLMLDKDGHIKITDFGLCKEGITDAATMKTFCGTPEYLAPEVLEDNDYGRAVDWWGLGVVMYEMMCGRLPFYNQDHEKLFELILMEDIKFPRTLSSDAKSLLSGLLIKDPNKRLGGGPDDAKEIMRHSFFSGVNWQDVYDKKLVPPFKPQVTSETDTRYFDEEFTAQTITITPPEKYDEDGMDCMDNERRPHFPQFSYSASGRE

Question: How did the IC50 [1] turn out when `Brc1cccc(Nc2ncnc(Nc3ccc4c(cnn4Cc4ccccc4)c3)n2)c1` [Compound 554] was run?
Answer: < 0.847 µM

Question: And the IC50 [2]?
Answer: > 9.53 µM

Question: What about the IC50 [3] of the same compound?
Answer: 5.08 to 7.41 µM

Question: And the IC50 [4]?
Answer: 7.41 to 9.53 µM

Question: What about the IC50 [5] of the same compound?
Answer: > 9.53 µM

Question: And the IC50 [6]?
Answer: 5.08 to 7.41 µM

Question: What about the IC50 [7] of the same compound?
Answer: 7.41 to 9.53 µM

Question: What about the IC50 [8] of the same compound?
Answer: 5.08 to 7.41 µM

Question: And the IC50 ([9]; read-out: KDR-1)?
Answer: 0.847 to 5.08 µM

Question: And the IC50 [10]?
Answer: 7.41 to 9.53 µM

Question: Which results are given for `COc1cc(Nc2ncnc(-n3c(NCc4ccc(O)cc4)nc4ccccc43)n2)cc(OC)c1OC` [Compound 561]?
Answer: IC50 [1]: > 9.01 µM; IC50 [2]: > 9.01 µM; IC50 [3]: > 9.01 µM; IC50 [4]: > 9.01 µM; IC50 [5]: > 9.01 µM; IC50 [6]: < 0.801 µM; IC50 [7]: < 0.801 µM; IC50 [8]: > 9.01 µM; IC50 ([9]; KDR-1): < 0.801 µM; IC50 [10]: > 9.01 µM

Question: Which IC50 [1] does the source give for `CN(c1cccc(Cl)c1)c1ncnc(Nc2cccc(Br)c2)n1` [Compound 707] here?
Answer: < 1.02 µM

Question: And the IC50 [2]?
Answer: > 11.5 µM

Question: And the IC50 [3]?
Answer: > 11.5 µM

Question: What about the IC50 [4] of the same compound?
Answer: > 11.5 µM

Question: What about the IC50 [5] of the same compound?
Answer: > 11.5 µM

Question: And the IC50 [6]?
Answer: > 11.5 µM

Question: And the IC50 [7]?
Answer: > 11.5 µM

Question: And the IC50 [8]?
Answer: > 11.5 µM

Question: What about the IC50 ([9]; read-out: KDR-1) of the same compound?
Answer: > 11.5 µM

Question: What about the IC50 [10] of the same compound?
Answer: > 11.5 µM

Question: For `Nc1ncnc(Nc2ccc3c(cnn3Cc3ccccc3)c2)n1` [Compound 665], which IC50 [1] is on record?
Answer: 1.26 to 7.56 µM

Question: What about the IC50 [2] of the same compound?
Answer: > 14.2 µM

Question: And the IC50 [3]?
Answer: > 14.2 µM

Question: And the IC50 [4]?
Answer: > 14.2 µM

Question: And the IC50 [5]?
Answer: > 14.2 µM

Question: And the IC50 [6]?
Answer: > 14.2 µM

Question: What about the IC50 [7] of the same compound?
Answer: > 14.2 µM

Question: And the IC50 [8]?
Answer: 1.26 to 7.56 µM

Question: And the IC50 ([9]; read-out: KDR-1)?
Answer: > 14.2 µM

Question: And the IC50 [10]?
Answer: > 14.2 µM

Question: What does the source list for `CN1CCN(Cc2cccc(Nc3ncnc(Nc4cccc5ccccc45)n3)c2)CC1` [Compound 551]?
Answer: IC50 [1]: > 10.6 µM; IC50 [2]: > 10.6 µM; IC50 [3]: 8.22 to 10.6 µM; IC50 [4]: > 10.6 µM; IC50 [5]: > 10.6 µM; IC50 [6]: > 10.6 µM; IC50 [7]: > 10.6 µM; IC50 [8]: > 10.6 µM; IC50 ([9]; read-out: KDR-1): > 10.6 µM; IC50 [10]: > 10.6 µM

Question: What does the source list for `COc1cc(Nc2ncnc(Oc3ccc(OCc4ccccc4)cc3)n2)cc(OC)c1OC` [Compound 530]?
Answer: IC50 [1]: > 9.77 µM; IC50 [2]: > 9.77 µM; IC50 [3]: > 9.77 µM; IC50 [4]: > 9.77 µM; IC50 [5]: > 9.77 µM; IC50 [6]: > 9.77 µM; IC50 [7]: > 9.77 µM; IC50 [8]: > 9.77 µM; IC50 ([9]; read-out: KDR-1): > 9.77 µM; IC50 [10]: > 9.77 µM

Question: What does the source list for `Cc1cccc(Nc2ncnc(Nc3ccc4c(cnn4Cc4ccccc4)c3)n2)c1` [Compound 553]?
Answer: IC50 [1]: < 0.982 µM; IC50 [2]: 8.59 to 11 µM; IC50 [3]: 0.982 to 5.89 µM; IC50 [4]: 5.89 to 8.59 µM; IC50 [5]: 8.59 to 11 µM; IC50 [6]: > 11 µM; IC50 [7]: 0.982 to 5.89 µM; IC50 [8]: 0.982 to 5.89 µM; IC50 ([9]; read-out: KDR-1): 0.982 to 5.89 µM; IC50 [10]: 5.89 to 8.59 µM

Question: For `COC(=O)c1ccc(-c2cc(Nc3ncnc(Nc4cccc(C(N)=O)c4)n3)[nH]n2)cc1` [Compound 990], which IC50 [1] is on record?
Answer: > 10.5 µM

Question: What about the IC50 [2] of the same compound?
Answer: 5.58 to 8.13 µM

Question: And the IC50 [3]?
Answer: 5.58 to 8.13 µM

Question: And the IC50 [4]?
Answer: > 10.5 µM

Question: What about the IC50 [5] of the same compound?
Answer: 0.929 to 5.58 µM

Question: What about the IC50 [6] of the same compound?
Answer: > 10.5 µM

Question: What about the IC50 [7] of the same compound?
Answer: > 10.5 µM

Question: And the IC50 [8]?
Answer: > 10.5 µM

Question: And the IC50 ([9]; read-out: KDR-1)?
Answer: > 10.5 µM

Question: What about the IC50 [10] of the same compound?
Answer: > 10.5 µM

Question: Which results are given for `COC(=O)Cc1cccc(Nc2ncnc(-n3c(NCc4ccccc4)nc4ccccc43)n2)c1` [Compound 545]?
Answer: IC50 [1]: 0.859 to 5.16 µM; IC50 [2]: > 9.67 µM; IC50 [3]: > 9.67 µM; IC50 [4]: > 9.67 µM; IC50 [5]: > 9.67 µM; IC50 [6]: 0.859 to 5.16 µM; IC50 [7]: < 0.859 µM; IC50 [8]: 7.52 to 9.67 µM; IC50 ([9]; read-out: KDR-1): < 0.859 µM; IC50 [10]: > 9.67 µM

Question: Which IC50 [1] does the source give for `COc1cc(Nc2ncnc(-n3c(Nc4ccc(OC(F)(F)F)cc4)nc4ccccc43)n2)cc(OC)c1OC` [Compound 1050] here?
Answer: 4.34 to 6.32 µM

Question: What about the IC50 [2] of the same compound?
Answer: > 8.13 µM

Question: What about the IC50 [3] of the same compound?
Answer: 4.34 to 6.32 µM

Question: And the IC50 [4]?
Answer: > 8.13 µM

Question: What about the IC50 [5] of the same compound?
Answer: > 8.13 µM

Question: And the IC50 [6]?
Answer: > 8.13 µM

Question: What about the IC50 [7] of the same compound?
Answer: 0.723 to 4.34 µM

Question: And the IC50 [8]?
Answer: 4.34 to 6.32 µM

Question: And the IC50 ([9]; read-out: KDR-1)?
Answer: 0.723 to 4.34 µM

Question: And the IC50 [10]?
Answer: > 8.13 µM
